Experimental data from patent US20200222323A1, “ADRENALIN-CONTAINING DOUBLE LAYERED LIPID VESICLES FOR USE IN THE TREATMENT OF CARDIAC EMERGENCIES” (UNIVERSITÀ DEGLI STUDI DI CAGLIARI, priority 2017, published 2020).

Experiments:
[1] = control solution, same conditions, PBS pH 7.4, 37° C.
Method: The in vitro studies on the release of adrenaline from the liposomal formulations were conducted with a modified dialysis technique or by means of a “sample and separate” method.
In the former case, a cellulose membrane (Spectra/Por®: cut-off 12-14 kDa MW, pore size 3 nm, Spectrum Laboratories Inc., USA) was positioned between the two compartments of a Franz vertical diffusion cell (Rofarma, Milan). The receptor compartment, with a capacity of 6.5 ml and a diffusion area of 0.636 cm2, was filled with a phosphate buffer solution (PBS pH 7.4) containing sodium metabisulphite (0.053 M), stirred constantly by a small magnetic stirrer at a controlled temperature of 37° C. for the whole duration of the experiment.
At 1-hour time intervals, for the 8 hours of the experiment, 1 ml of the solution in the receptor compartment was removed and restored with fresh buffer. The amount of adrenaline contained in the samples removed was analysed by HPLC.
Use was made of an XTerra C18 column (3.5 μiη, 4.6×150 mm, Waters), with a mobile phase composed of 86.5% water, 13.45% acetonitrile and 0.05% acetic acid (v/v) at a flow rate of 0.8 ml/min. A calibration curve was constructed using standard solutions (100-1 ng/μl), having a correlation coefficient (R2) of 0.999.

[2] = test system: human umbilical vein endothelial cells (HUVECs); details: HUVEC, 5 hours treatment, adrenaline 3-120 μg/ml, MTT
Method: The biocompatibility of the formulation was tested on human umbilical vein endothelial cells (HUVECs) obtained from a pool of healthy donors (Promocell, Germany). The cells were cultured in Endothelial Cell Growth Medium 2 (ECGM 2, Promocell) enriched with penicillin (50 units/ml) and streptomycin (50 mg/ml), and maintained in an incubator with a humidified atmosphere, CO2 (5%) at 37° C. The cells were seeded in 96-well plates 24 hours before the treatment with liposomes (density 4×10^4 cells/well). […] At the end of the treatment, the medium was removed and replaced with 100 μl of a solution of 3-(4,5-dimethylthiazol-2-yl)-2,5-diphenyltetrazolium bromide (MTT) in PBS (0.5 mg/ml). After 4 hours of incubation at 37° C., the MTT was removed and 100 μl of dimethyl sulphoxide (DMSO) was added in each well. Absorbance was measured at 570 nm by means of a Synergy 4 plate reader (BioTek, Winooski, Vt., USA). The results are expressed as a percentage of viable cells compared to the untreated cells.

[3] = cited from earlier work

total amount of drug released after the 8 hours of the experiment [1]: 70±3%
Structure (SMILES): CNCC(O)c1ccc(O)c(O)c1 (stereo not drawn) [adrenaline]
viability of treated versus untreated cells [2]: no significant difference | half-life in vivo [3]: ≤ 5 min
